{"source": "ChEMBL document CHEMBL5096148", "about": "“Natural Products with Potential to Treat RNA Virus Pathogens Including SARS-CoV-2” (J Nat Prod, 2021)", "key": {"[1]": {"test_system": "Middle East respiratory syndrome-related coronavirus", "assay": "Antiviral activity against MERS-CoV jordan N3 by high-content image analysis", "type": "functional, organism-based"}, "[2]": {"test_system": "SARS-CoV", "assay": "Antiviral activity against SARS-Cov urbani by neutral red uptake analysis", "type": "functional, organism-based", "conditions": "Severe acute respiratory syndrome-related coronavirus"}, "[3]": {"test_system": "Marburgvirus", "assay": "Antiviral activity against MARV musoke by high-content image analysis", "type": "functional, organism-based", "conditions": "Orthomarburgvirus"}, "[4]": {"test_system": "Sudan ebolavirus", "assay": "Antiviral activity against SUDV Boniface by high-content image analysis", "type": "functional"}, "[5]": {"test_system": "Ebolavirus", "assay": "Antiviral activity against EBOV Kikwit by high-content image analysis", "type": "functional, organism-based", "conditions": "Orthoebolavirus"}, "[6]": {"test_system": "dengue virus type 2", "assay": "Antiviral activity against DENV2 new Guinea by neutral red uptake analysis", "type": "functional, organism-based"}, "[7]": {"test_system": "Ebolavirus", "assay": "Antiviral activity against EBOV infected in Vero E6 cells assessed as reduction in virus titer incubated for 5 days by immunofocus assay", "type": "functional, organism-based", "conditions": "Orthoebolavirus, Vero C1008, 120 h"}, "[8]": {"test_system": "Ebolavirus", "assay": "Antiviral activity against EBOV infected in HMVEC cells", "type": "functional, organism-based", "conditions": "Orthoebolavirus"}, "[9]": {"test_system": "dengue virus type 2", "assay": "Antiviral activity against DENV-2 infected in Baby hamster BHK cells assessed as reduction in virus-induced cytopathic effect", "type": "functional, organism-based"}, "[10]": {"test_system": "Marburgvirus", "assay": "Antiviral activity against Marburg virus", "type": "functional, organism-based", "conditions": "Orthomarburgvirus"}, "[11]": {"test_system": "Ebolavirus", "assay": "Antiviral activity against pseudo typed EBOV infected in human A549 cells assessed as inhibition of viral growth", "type": "functional, organism-based", "conditions": "Orthoebolavirus"}, "[12]": {"test_system": "Ebolavirus", "assay": "Antiviral activity against pseudo typed EBOV infected in human HEK293T cells assessed as inhibition of viral growth", "type": "functional, organism-based", "conditions": "Orthoebolavirus, HEK-293T"}, "[13]": {"test_system": "Marburgvirus", "assay": "Antiviral activity against MARV infected in human A549 cells assessed as inhibition of viral growth", "type": "functional, organism-based", "conditions": "Orthomarburgvirus"}, "[14]": {"test_system": "Ebolavirus", "assay": "Antiviral activity against EBOV infected in human A549 cells assessed as inhibition of viral growth", "type": "functional, organism-based", "conditions": "Orthoebolavirus"}, "[15]": {"test_system": "Ebolavirus", "assay": "Antiviral activity against EBOV", "type": "functional, organism-based", "conditions": "Orthoebolavirus"}, "[16]": {"test_system": "dengue virus type 2", "assay": "Antiviral activity against DENV2 infected in human A549 cells at 25 uM incubated for 24 hrs by plaque assay relative to control", "type": "functional"}, "[17]": {"test_system": "SARS-CoV", "assay": "Antiviral activity against SARS-CoV assessed as reduction in virus-induced cytopathic effect", "type": "functional, organism-based", "conditions": "Severe acute respiratory syndrome-related coronavirus"}}}
{"molecule": "Nc1ncnc2c([C@@H]3N[C@H](CO)[C@@H](O)[C@H]3O)c[nH]c12", "values": [{"measurement": "EC50", "setting": "[1]", "value": 68.4, "unit": "µM"}, {"measurement": "EC50", "setting": "[2]", "value": 57.7, "unit": "µM"}, {"measurement": "EC50", "setting": "[3]", "value": 4.4, "unit": "µM"}, {"measurement": "EC50", "setting": "[4]", "value": 3.4, "unit": "µM"}, {"measurement": "EC50", "setting": "[5]", "value": 11.8, "unit": "µM"}, {"measurement": "EC50", "setting": "[6]", "value": 32.8, "unit": "µM"}]}
{"molecule": "NC(=O)c1nc(F)cnc1O", "values": [{"measurement": "IC50", "setting": "[7]", "value": 67, "unit": "µM"}, {"measurement": "IC90", "setting": "[7]; time 5 day", "value": 110, "unit": "µM"}]}
{"molecule": "CCC(CC)COC(=O)[C@H](C)N[P@](=O)(OC[C@H]1O[C@@](C#N)(c2ccc3c(N)ncnn23)[C@H](O)[C@@H]1O)Oc1ccccc1", "values": [{"measurement": "EC50", "setting": "[8]", "value": 60, "unit": "nM"}]}
{"molecule": "CN[C@@H]1[C@@H](O)[C@H](O[C@@H]2[C@@H](O)[C@H](O[C@H]3O[C@H]([C@H](C)O)[C@@H](O)[C@H](O)[C@H]3N)[C@@H](N)C[C@H]2N)OC[C@]1(C)O", "values": [{"measurement": "EC50", "setting": "[9]", "value": 3, "unit": "µg/mL"}]}
{"molecule": "C=C(C)O[C@@H]1[C@@H](OC(C)=O)[C@H](NC(=O)[C@]23CCC(C)(C)C[C@H]2C2=CC[C@@H]4[C@@]5(C)CCC(=O)C(C)(C)[C@@H]5CC[C@@]4(C)[C@]2(C)CC3=O)O[C@H](COC(C)=O)[C@@H]1OC(C)=O", "values": [{"measurement": "IC50", "setting": "[10]", "value": 2.29, "unit": "µM"}, {"measurement": "IC50", "setting": "[11]", "value": 59.2, "unit": "nM"}]}
{"molecule": "C#CN(CCCC1(C)N=N1)C(=O)[C@]12CCC(C)(C)C[C@H]1C1=CC[C@@H]3[C@@]4(C)CCC(=O)C(C)(C)[C@@H]4CC[C@@]3(C)[C@]1(C)CC2=O", "values": [{"measurement": "IC50", "setting": "[12]", "value": 467, "unit": "nM"}, {"measurement": "IC50", "setting": "[10]", "value": 5.52, "unit": "µM"}]}
{"molecule": "O=c1oc2c(O)c(O)cc3c(=O)oc4c(O)c(O)cc1c4c23", "note": "[ELLAGIC ACID]", "values": [{"measurement": "IC50", "setting": "[13]", "value": 6.4, "unit": "µM"}, {"measurement": "IC50", "setting": "[14]", "value": 1400, "unit": "nM"}]}
{"molecule": "C=CCc1ccc(O)c(OC)c1", "note": "[EUGENOL]", "values": [{"measurement": "EC50", "setting": "[15]", "value": 1300, "unit": "nM"}]}
{"molecule": "C[C@H](CC[C@H](O)[C@](C)(O)CO)[C@H]1CC[C@@]2(C)C3=CC[C@H]4C(C)(C)C(=O)CC[C@]4(C)C3=CC[C@]12C", "note": "[GANODERMANONTRIOL]", "values": [{"measurement": "Activity", "setting": "[16]", "value": 25, "unit": "%"}]}
{"molecule": "O[C@H]1[C@H]2c3cc4c(cc3CN3CCC(=C[C@@H]1O)[C@H]23)OCO4", "note": "[LYCORINE]", "values": [{"measurement": "EC50", "setting": "[17]", "value": 15.7, "unit": "nM"}]}
